Assay results taken from paper PMC4729137, “Functional analysis of androgen receptor mutations that confer anti-androgen resistance identified in circulating cell-free DNA from prostate cancer patients” (Genome Biology, 2016).
Like-named read-outs stand apart in the source and are kept apart here.

How the values were obtained:
BF3 pocket of AR-LBD = target: T1, BF3 pocket of AR-LBD (Homo sapiens, UniProt P10275); assay: Lanthascreen TR-FRET displacement of FITC-BAG1L peptide; format: binding; details: compounds 0.41 to 100 μM
T1 construct: the (His)6-tagged AR-LBD was prepared at 4X final concentration in the buffer
T1 sequence (P10275 669-900 limits assumed): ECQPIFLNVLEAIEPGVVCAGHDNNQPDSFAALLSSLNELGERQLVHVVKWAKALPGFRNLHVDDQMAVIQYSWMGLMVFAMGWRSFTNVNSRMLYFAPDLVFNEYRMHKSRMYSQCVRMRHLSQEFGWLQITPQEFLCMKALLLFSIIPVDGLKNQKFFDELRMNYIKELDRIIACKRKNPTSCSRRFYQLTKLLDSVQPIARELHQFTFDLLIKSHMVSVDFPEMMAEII
Description: Compounds were tested in the range of 0.41 to 100 μM in a final concentration of 1.5 % DMSO. The protein AR-LBD, the FITC-BAG1L peptide, and the LanthaScreen® Elite Terbium-labeled anti-His-tag antibody (Life Technologies, PV5863) were used at final concentrations of 100 nM, 500 nM, and 5 nM, respectively. […] Mix B contained 4X FITC-BAG1L peptide in 2 % DMSO. A three-fold serial dilution of the compounds was prepared at 100X final concentration in DMSO. […] In a black flat bottom 384-well plate 5 μL of Mix A, 5 μL of Mix B, and 10 μL of Mix C were added.

24 AR mutants = assay: AR inhibition luciferase assay, panel of all 24 AR mutants; format: cell-based, human; details: all tested AR mutants; Additional file 4: Table S2
Description: Full-length human AR (WT-AR) was encoded on a pcDNA3.1 expression plasmid (Life technologies). The LBD point mutations (single and multiple) were generated using the QuikChange II Site-Directed Mutagenesis Kit (Agilent Technologies) as per manufacturer’s instructions using WT-AR as the template. The mutagenic oligonucleotide primers were designed individually with the desired mutation in the middle of the primer with approximately 10 to 15 bases of correct sequence on both sides.
PC3 cells were seeded and transfected as described above. […] A non-stimulated/no R1881 control was used. After 24 h, cells were lysed and AR-dependent luciferase activity was quantified. Each concentration was assayed in quadruplicate n = 4, with a biological replicate of n = 3. Results were averaged and normalized by expressing them as a percentage of WT AR activity.

[1] = serum of prostate cancer patients, cited from earlier work

SMILES: Brc1cn(-c2csc(N3CCOCC3)n2)c(Br)n1 [VPC-14449]
- Displacement of FITC labeled BAG1L peptide (residues 1-20) from the BF3 pocket of AR (BF3 pocket of AR-LBD): not able to displace

SMILES: C[C@]12CC[C@H](O)CC1=CC[C@@H]1[C@@H]2CC[C@]2(C)C(c3cccnc3)=CC[C@@H]12 [abiraterone]
- Activation of AR mutants (in words) (24 AR mutants): none of the tested mutants were activated

SMILES: CC(O)(CS(=O)(=O)c1ccc(F)cc1)C(=O)Nc1ccc(C#N)c(C(F)(F)F)c1 (stereo not shown) [Bicalutamide, bicalutamide]
- Steady state concentration in serum [1]: 8.9 µg/mL
- Steady state concentration in serum ([1]; converted from μg/mL): approximately 20 μM
